Laboratory results reported in US9815851B2, “Pyrrolo carboxamides as modulators of orphan nuclear receptor RAR-related orphan receptor-gamma (RORγ, NR1F3) activity and for the treatment of chronic inflammatory and autoimmune diseases” (PHENEX PHARMACEUTICALS AG, priority 2011, dated 2017).
Like-named read-outs stand apart in the source and are kept apart here.

Experiments:
[1] = molecular target: T1, RORγ ligand binding domain (LBD) (Homo sapiens, UniProt P51449); experiment: TR-FRET Activity Assay (ligand sensing, RORγ-LBD / coactivator peptide interaction, LANCE); type: biochemical
T1 construct: made in house; host or cells: E. coli BL-21 (BL3), vector pDEST15
T1 sequence (P51449 269-508 limits assumed): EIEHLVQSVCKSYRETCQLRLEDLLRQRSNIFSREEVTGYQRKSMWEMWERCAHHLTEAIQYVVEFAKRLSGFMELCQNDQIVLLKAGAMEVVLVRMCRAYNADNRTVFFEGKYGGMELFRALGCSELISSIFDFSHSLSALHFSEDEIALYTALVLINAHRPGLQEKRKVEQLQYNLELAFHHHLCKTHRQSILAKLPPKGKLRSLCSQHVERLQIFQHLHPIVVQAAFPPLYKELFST

RORγ = molecular target: T2, RORγ (UniProt P51449); experiment: RORγ Gal4 Reporter Gene Assay in 293T cells (firefly and renilla luciferase); type: cell-based, human
T2 sequence (P51449 1-518): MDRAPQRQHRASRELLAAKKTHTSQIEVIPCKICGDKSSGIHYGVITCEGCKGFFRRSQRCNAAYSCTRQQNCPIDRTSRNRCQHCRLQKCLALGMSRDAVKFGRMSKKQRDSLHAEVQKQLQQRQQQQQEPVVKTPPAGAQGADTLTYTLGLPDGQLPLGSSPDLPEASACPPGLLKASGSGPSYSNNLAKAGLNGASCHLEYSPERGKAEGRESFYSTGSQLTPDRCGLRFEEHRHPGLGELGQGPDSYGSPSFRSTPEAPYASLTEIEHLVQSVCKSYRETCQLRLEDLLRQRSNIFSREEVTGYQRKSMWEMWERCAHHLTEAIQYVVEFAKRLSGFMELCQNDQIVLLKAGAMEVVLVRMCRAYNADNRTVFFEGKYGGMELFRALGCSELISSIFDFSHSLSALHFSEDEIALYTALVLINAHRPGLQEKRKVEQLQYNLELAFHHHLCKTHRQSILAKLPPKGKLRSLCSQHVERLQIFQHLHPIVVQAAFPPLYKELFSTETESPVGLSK

[2] = first value of the cell FRET/FF/REN, TR-FRET activity assay, read-out: pIC50 (FRET) (converted)
[3] = second value of the cell, Gal4 reporter gene assay in 293T cells, firefly luciferase
[4] = third value of the cell, Gal4 reporter gene assay in 293T cells, renilla normalised luciferase

Structure (SMILES) | IC50 [1, 2] [µM] | pIC50 (FF) (RORγ; [3]) | pIC50 (REN) (RORγ; [4]) | IC50 [1] [µM] | pIC50 (FF) (RORγ) | pIC50 (REN) (RORγ)
Cc1c(C(=O)NC2COC2)cc(-c2cc(C(=O)NC(C)(C)C)cc(C(F)(F)F)c2)n1CC1CCCCC1 [Example 15, 5-(3-(tert-Butylcarbamoyl)-5-(trifluoromethyl)phenyl)-1-(cyclohexylmethyl)-2-methyl-N-(oxetan-3-yl)-1H-pyrrole-3-carboxamide] |  |  |  | 0.501 | 6.3/6.9/6.9 | 6.3/6.9/6.9
Cc1c(C(=O)NC2CCOCC2)cc(-c2ccc(S(N)(=O)=O)c(C(F)(F)F)c2)n1CC1CCCCC1 [Example 19, 1-(Cyclohexylmethyl)-2-methyl-5-(4-sulfamoyl-3-(trifluoromethyl)phenyl)-N-(tetrahydro-2H-pyran-4-yl)-1H-pyrrole-3-carboxamide] | 12.6 | 6.6 | 6.4 |  |  | 
CC(C)(C)NS(=O)(=O)c1ccc(-c2cc(C(=O)NC3CCOCC3)c(F)n2CC2CCCCC2)cc1C(C)(C)C [Example 20, 5-(3-(tert-Butyl)-4-(N-(tert-butyl)sulfamoyl)phenyl)-1-(cyclohexylmethyl)-2-fluoro-N-(tetrahydro-2H-pyran-4-yl)-1H-pyrrole-3-carboxamide] | 0.398 | 7.4 | 7.5 |  |  | 
CC(C)(C)NS(=O)(=O)c1ccc(-c2c(Cl)c(C(=O)NC3CCOCC3)c(Cl)n2CC2CCCCC2)c2ccccc12 [Example 23, 5-(4-(N-(tert-Butyl)sulfamoyl)naphthalen-1-yl)-2,4-dichloro-1-(cyclohexylmethyl)-N-(tetrahydro-2H-pyran-4-yl)-1H-pyrrole-3-carboxamide] |  |  |  | 0.2 | 6.7/8.5/8.5 | 6.7/8.5/8.5
Cc1c(C(=O)NC2CCOCC2)cc(-c2ccc(-c3ccnn3C(C)C)c(C(C)(C)C)c2)n1CC1CCCCC1 [Example 26, 5-(3-(tert-Butyl)-4-(1-isopropyl-1H-pyrazol-5-yl)phenyl)-1-(cyclohexylmethyl)-2-methyl-N-(tetrahydro-2H-pyran-4-yl)-1H-pyrrole-3-carboxamide] | 0.2 | 7.5 | 7.6 |  |  | 
Cc1c(C(=O)NC2CCOCC2)cc(-c2ccc(-c3ccnn3C(C)C)c(C(C)(C)O)c2)n1CC1CCCCC1 [Example 27, 1-(Cyclohexylmethyl)-5-(3-(2-hydroxypropan-2-yl)-4-(1-isopropyl-1H-pyrazol-5-yl)phenyl)-2-methyl-N-(tetrahydro-2H-pyran-4-yl)-1H-pyrrole-3-carboxamide] | 2 | 6.4 | 6.5 |  |  | 
Cc1c(C(=O)NC2CCOCC2)cc(-c2cc(C(C)(C)O)c3c(c2)C2(CCO3)CC2)n1CC1CCCCC1 [Example 31, 1-(Cyclohexylmethyl)-5-(8-(2-hydroxypropan-2-yl)spiro[chroman-4,1′-cyclopropan]-6-yl)-2-methyl-N-(tetrahydro-2H-pyran-4-yl)-1H-pyrrole-3-carboxamide] | 1.26 | 6.9 | 6.9 |  |  | 

More lines, main results first:

IC50 [1, 2] [µM] | pIC50 (FF) (RORγ; [3]) | pIC50 (REN) (RORγ; [4]) | Structure (SMILES) | IC50 [1] [µM] | pIC50 (FF) (RORγ) | pIC50 (REN) (RORγ)
0.398 | 7.5 | 7.6 | CC(C)(C)NS(=O)(=O)c1ccc(-c2cc(C(=O)NCCC(C)(C)C(=O)O)c(Cl)n2CC2CCCCC2)cc1C(F)(F)F [Example 22, 4-(5-(4-(N-(tert-Butyl)sulfamoyl)-3-(trifluoromethyl)phenyl)-2-chloro-1-(cyclohexylmethyl)-1H-pyrrole-3-carboxamido)-2,2-dimethylbutanoic acid] |  |  | 
3.16 | 6.4 | 6.4 | Cc1c(C(=O)NC2CCOCC2)cc(C2=NN(C(=O)NC(C)(C)C)C3(CCCCC3)C2)n1CC1CCCCC1 [Example 24, N-(tert-Butyl)-3-(1-(cyclohexylmethyl)-5-methyl-4-((tetrahydro-2H-pyran-4-yl)carbamoyl)-1H-pyrrol-2-yl)-1,2-diazaspiro[4.5]dec-2-ene-1-carboxamide] |  |  | 
1.58 | 6.3 | 6.2 | Cc1c(C(=O)NC2CCOCC2)cc(-c2ccc(C(NC(C)(C)C)C(F)(F)F)c(C(F)(F)F)c2)n1CC1CCCCC1 (stereo not drawn) [Example 25] |  |  | 
1.26 | 6.6 | 6.9 | Cc1c(C(=O)NC2CCOCC2)cc(-c2ccc(S(=O)(=O)NC(C)(C)C)c(C(F)(F)F)c2)n1CC1(F)CCCCC1 [Example 28, 5-(4-(N-(tert-Butyl)sulfamoyl)-3-(trifluoromethyl)phenyl)-1-((1-fluorocyclohexyl)-methyl)-2-methyl-N-(tetrahydro-2H-pyran-4-yl)-1H-pyrrole-3-carboxamide] |  |  | 
3.98 | 7.2 | 7.2 | Cc1c(C(=O)N[C@H]2C[C@H](C(=O)O)C2)c(Cl)c(-c2cc(C(C)(C)C)cc(C3(C)CC3)c2)n1CC1CCCCC1 [Example 29, (trans)-3-(5-(3-(tert-Butyl)-5-(1-methylcyclopropyl)phenyl)-4-chloro-1-(cyclohexylmethyl)-2-methyl-1H-pyrrole-3-carboxamido)cyclobutanecarboxylic acid] |  |  | 
3.16 | 6.2 | 6.3 | Cc1c(C(=O)NC2CCOCC2)cc(-c2ccc(CN3CCOCC3)c(C(F)(F)F)c2)n1CC1CCCCC1 [Example 33, 1-(Cyclohexylmethyl)-2-methyl-5-(4-(morpholinomethyl)-3-(trifluoromethyl)phenyl)-N-(tetrahydro-2H-pyran-4-yl)-1H-pyrrole-3-carboxamide] |  |  | 
0.398 | 6.8 | 7.1 | Cc1c(C(=O)NC2CCOCC2)cc(-c2ccc(CN3CCOCC3(C)C)c(C(F)(F)F)c2)n1CC1CCCCC1 [Example 34, 1-(Cyclohexylmethyl)-5-(4-((3,3-dimethylmorpholino)methyl)-3-(trifluoromethyl)phenyl)-2-methyl-N-(tetrahydro-2H-pyran-4-yl)-1H-pyrrole-3-carboxamide] |  |  | 
